Assay results published in PubChem BioAssay (NCI).
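48-hour exposure; five concentrations; linearly interpolated endpoints. GI50 = concentration required for 50% inhibition of growth. TGI marks complete inhibition of growth.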

Columns and labels:
Experiment in all cases: NCI anticancer screen, dose series, 48 h
HCT-15 colon = system: HCT-15 colon
IGROV1 ovarian = system: IGROV1 ovarian
SF-295 CNS = system: SF-295 CNS
SK-MEL-2 melanoma = system: SK-MEL-2 melanoma
SN12C renal = system: SN12C renal
NCI-H522 lung = system: NCI-H522 lung
HCC-2998 colon = system: HCC-2998 colon
HT29 colon = system: HT29 colon
SF-268 CNS = system: SF-268 CNS
RXF 393 renal = system: RXF 393 renal

| Structure (SMILES) | TGI (HCT-15 colon) [µM] | TGI (IGROV1 ovarian) [µM] | TGI (SF-295 CNS) [µM] | TGI (SK-MEL-2 melanoma) [µM] | TGI (SN12C renal) [µM] | TGI (NCI-H522 lung) [µM] | TGI (HCC-2998 colon) [µM] | TGI (HT29 colon) [µM] | TGI (SF-268 CNS) [µM] | GI50 (SF-295 CNS) [µM] | GI50 (SK-MEL-2 melanoma) [µM] | GI50 (HCC-2998 colon) [µM] | GI50 (SF-268 CNS) [µM] | TGI (RXF 393 renal) [µM] | GI50 (HCT-15 colon) [µM] | GI50 (IGROV1 ovarian) [µM] | GI50 (SN12C renal) [µM] | GI50 (NCI-H522 lung) [µM] | GI50 (HT29 colon) [µM] | GI50 (RXF 393 renal) [µM] |
| --- | --- | --- | --- | --- | --- | --- | --- | --- | --- | --- | --- | --- | --- | --- | --- | --- | --- | --- | --- | --- |
| NNC(=O)N/N=C1/C(=O)N(c2ccc(Cl)c(Cl)c2)C(=O)C(=O)C1c1nc2ccccc2o1 (stereo not given) | > 100 | > 100 | > 100 | > 100 | > 100 | > 100 | > 100 | > 100 | > 100 |  |  |  |  |  |  |  |  |  |  |  |
| COc1ccc(OC)c(/C=C/C(=O)c2ccc3cc(OC)ccc3c2)c1 | > 50 | > 14.5 | 12.2 | > 50 | > 13.1 | > 14 | 2.44 |  | > 50 | 1.5 | > 14.9 | 0.795 | > 14.3 |  |  |  |  |  |  |  |
| CN(C)c1ccc(/C=N/NC(=O)c2cnc3ccccc3c2)cc1 | > 100 | > 100 | > 100 | > 100 | > 100 | > 100 | > 100 |  | 53.3 |  |  |  |  | 54.9 |  |  |  |  |  |  |
| O=S1Cc2ccccc2CSS1 (stereo not given) | 28.1 | > 100 | 37.9 |  | 29.4 | 19.4 | 73.7 | 32.1 | 74.2 |  |  |  |  | 13.8 |  |  |  |  |  |  |
| NCCNc1ncnc2ccc(Cl)cc12 | > 100 | > 100 | > 100 | > 100 | > 100 | > 100 |  | > 100 | > 100 |  |  |  |  | > 100 |  |  |  |  |  |  |
| COC(=O)C(C(=O)C(=O)Nc1ccc(N)cc1[N+](=O)[O-])c1nc2ccc(Cl)cc2[nH]c1=O (stereo not given) | > 100 | > 100 | > 100 | > 100 | > 100 |  | > 100 | > 100 | > 100 |  |  |  |  | > 100 |  |  |  |  |  |  |
| CSc1nc(-c2cccc(NC(=O)CCl)c2)c(C#N)c(=O)n1C | 2.88 | 1.41 | 3.22 | 7.08 | 18.1 | 3.21 | 3.8 | 3.9 |  | 1.7 | 2.17 | 1.96 |  | 3.03 | 1.27 | 0.248 | 3.05 | 1.12 | 1.68 | 1.54 |
| C/C(=N\NS(=O)(=O)c1ccccc1)c1ccc[n+]([O-])n1 | > 100 | > 100 | > 100 |  | > 100 | 79 | > 100 | > 100 | > 100 |  |  |  |  |  |  |  |  |  |  |  |
| Nc1nc(N)c(-c2ccc(Cl)cc2)c(/C=C/c2ccc([N+](=O)[O-])cc2)n1 | > 100 | 52.9 | > 100 | 67.2 | > 100 | 41.9 |  | > 100 | 93.9 | 4.39 | 18.6 |  | 8.32 |  | 3.97 | 5.35 | 8.02 | 13.2 | 4.99 |  |
| COc1ccc(S(=O)(=O)N/N=C/CN2C(=O)c3ccccc3C2=O)cc1 | > 100 | > 100 | > 100 | > 100 | > 100 | > 100 | > 100 | > 100 |  |  |  |  |  | > 100 |  |  |  |  |  |  |
| CCCCCC/C(CC(=O)CCC(=O)NCCc1ccccc1)=N\NC(=O)c1ccc2ccccc2c1O |  | > 100 | > 100 | 53.7 | > 100 |  | > 100 | > 100 | > 100 |  |  |  |  | > 100 |  |  |  |  |  |  |
| COc1ccc2c(c1)O/C(=C\c1ccc([N+](=O)[O-])s1)C2=O | 0.825 |  | > 47.4 | > 27 | > 100 | 0.738 | > 100 |  | > 19.8 |  |  | 2.91 | 1.8 | > 20.8 | 0.259 | 1.14 | 2.28 | 0.241 |  | 1.85 |
| CCN1C(=O)N(CC)C2C1NN=c1s/c(=C\c3cnc(C)n3C)c(=O)n12 (stereo not given) | > 100 | > 100 | > 100 | 11.3 | > 100 | 4.34 | 14.5 |  | > 100 | 1.21 | 1.85 | 2.65 | 4.1 | 5.38 | 3.42 | 4.37 | 4.64 | 1.33 |  | 1.2 |
| C=C1CC(CC(=O)C(C)CC2CC(=C)C(=O)O2)OC1=O (stereo not given) | 36.7 | > 100 | > 100 | 25.3 | 34.1 |  | > 100 | 63.2 | 48.6 |  |  |  |  | 37.9 |  |  |  |  |  |  |
| C[C@H](CCCOS(C)(=O)=O)[C@H]1CC[C@H]2[C@@H]3CC[C@@H]4C[C@H](OS(C)(=O)=O)CC[C@]4(C)[C@H]3CC[C@]12C | > 2500 | 1450 | 1340 | > 2500 |  | 961 |  | > 2500 |  | 532 | 989 |  | 590 | > 2500 | 1020 | 518 | 799 | 398 | 1920 | 367 |
| Nc1nc(Cl)c2ncn(Cc3ccc(-c4ccc(CCl)cc4)cc3)c2n1 |  | > 100 | > 100 | > 100 | 10.1 | > 100 |  | 43.1 | 36.5 | 17.4 | 33.9 |  | 16.2 | 54.4 |  | 12.5 | 2.54 | > 100 | 11.3 | 12.1 |
| CC1(C)N=C(N)N=C(N)N1c1ccc(CCC(=O)Nc2cccc(S(=O)(=O)F)c2)cc1 | > 100 | 5 | > 100 | > 100 | > 100 |  |  | > 100 | > 100 | 7.75 | 10.8 |  | 4.74 | > 100 | 30.7 | 1.09 | 4.67 |  | 5.62 | 56.8 |
| CC(=O)CC(=O)ON(C)C(=O)Cc1ccccc1 | > 100 | > 100 | > 100 |  | > 100 | > 100 | > 100 | > 100 | > 100 |  |  |  |  | > 100 |  |  |  |  |  |  |
